Reference: patent publication US20230407249A1, “Media and methods for establishing and maintaining early embryo-like cells” (BGI SHENZHEN GROUP HOLDINGS CO., LIMITED, priority 2020, published 2023)

Legend:
primed human PSCs = assay: Conversion of primed human PSCs to ICLCs (ICM marker expression, colony morphology); assay type: cell-based
Protocol: One day before initiation of conversion, primed human PSCs were washed with PBS once and dissociated into single cells and plated at a density of 1,000 to 1,500 cells/cm^2 on feeder in mTeSR1 or E8 medium supplemented with 10 μM Y27632. Twenty-four hours later, culture medium was switched to 4CL medium 1. The culture medium was refreshed with the same medium every 24 hours. Colonies became round and domed-shape in 24 to 48 hours. Cells were passaged every 3 to 4 days. For passaging, cells were dissociated into single cells using TrypLE: 0.5 mM EDTA (1:1) and plated at a density of 1,000 to 1,500 cells/cm^2 on feeder (feeders were seeded on Geltrex™/Matrigel™ pre-treated plate) (FIG. 1). The ICLCs induction and maintenance can be conducted under hypoxic condition (37° C., 5% CO2, 5% O2), or normoxic condition (37° C., 5% CO2, 21% O2) (FIG. 34), preferably hypoxia condition.
Using the same procedures of example 1, except plating cells on 1% (v/v) Geltrex™ in DMEM-F12 (cat #) coated plates instead of on feeder cells.
Primed human PSCs were cultured following the same procedures of example 1. One day before initiation of the conversion, primed human PSCs were dissociated into single cells and plated 60,000 cells/well in Aggrewell™800 plates using mTeSR1 or E8 medium supplemented with 10 μM Y27632. […]

[1] = test system: primed human PSCs or ICLCs; assay: Conversion of primed human PSCs or ICLCs to 8CLCs (8C marker expression); assay type: cell-based; details: CHIR99021 included in e4CL, or IWR1 withdrawn from e4CL
Protocol: Primed human PSCs were cultured following the same procedures of example 1. One day before initiation of the conversion, primed human PSCs were dissociated into single cells and plated at 2,000 to 3,000 cells/cm^2 on feeder using mTeSR1 or E8 medium supplemented with 10 μM Y27632. Twenty-four hours later, culture medium was changed into e4CL medium, cells were cultured in incubator at 37° C., 5% CO2, hypoxic or normoxic condition. Medium was refreshed daily. Cells were passaged every 3 to 4 days. For passaging, cells were dissociated into single cells using TrypLE: 0.5 mM EDTA (1:1), plated at 2,000 to 3,000 cells/cm^2 on feeder coated plates. Generally, cells were converted to 8CLCs in approximately one week. One day before initiation of the conversion, ICLCs were dissociated into single cells and plated at 2,000 to 3,000 cells/cm^2 on feeders using 4CL medium. Twenty-four hours later, culture medium is changed into e4CL medium. Medium was refreshed daily. Cells were converted to 8CLCs in 3 to 5 days without passaging. ICLCs were cultured following the same procedures of example 1. One day before initiation of the conversion, ICLCs were dissociated into single cells and resuspended in 4CL medium at a density of 300,000 cells/ml. The cell suspension was added into flasks for suspension culture (Greiner Bio-One, 658190). […]

Question: Which “expression levels of ICM specific genes such as DNMT3L, STELLA, DPPA5, KLF17” value (primed human PSCs; final concentration of 40 to 70 μg/ml) does the source give for `O=C1O[C@H]([C@@H](O)CO)C(O)=C1O` [L-ascorbic acid] here?
Answer: Its value is “potently increases”.

Question: How did the 8CLC formation [1] turn out when `Cc1c[nH]c(-c2cnc(NCCNc3ccc(C#N)cn3)nc2-c2ccc(Cl)cc2Cl)n1` [CHIR99021] was run?
Answer: Its 8CLC formation is “inhibits formation of 8CLC”.

Question: And the ICLC formation (primed human PSCs; CHIR99021 included in 4CL, or IWR1 withdrawn from 4CL)?
Answer: Its ICLC formation is “inhibits formation of ICLC”.
